The values that follow come from publication PMC9822369, “Synthesis, Biological Evaluation, DNA Binding, and Molecular Docking of Hybrid 4,6-Dihydrazone Pyrimidine Derivatives as Antitumor Agents” (Molecules, 2022).

For experiment [1], the target named is epidermal growth factor receptor kinase. Also on record: method as in PMID 30633509. To be noted: dual epidermal growth factor receptor kinase and microtubule inhibitor; cited from earlier work.
Experiment [2] concerns HL-7702 cells. The experiment can be described thus: MTT cytotoxicity assay, normal cells HL-7702. It is filed as cell-based. Conditions: L02, 48 h, normal human hepatocytes, read-out: IC50 against HL-7702. The procedure: (§1) The MTT method is often used to detect the cytotoxicity of compounds in vitro [64]. The cytotoxicity of 10a–10f was evaluated by MTT assay against BGC-823, BEL-7402, MCF-7, and A549 tumor cells. HL-7702 was selected to evaluate the safety of 10a–10f against human normal cells. 5-FU was also evaluated as a positive control. The well-grown cells were inoculated in 96-well plates at a density of 3000 cells/well and incubated in 37 °C for 24 h. The negative control group, blank control group, and administration group were set up. The cells were incubated with a gradient concentration (1.25, 2.5, 5, 10, and 20 μg/mL) of samples or 5-FU for 48 h. Then, 20 μL MTT solution (5 mg/mL) was added to each well. After the cells were incubated for 4 h, 150 μL DMSO was added to each well before testing. The absorbance was measured at 570 nm with a microplate reader. The inhibition rate and final IC50 values were calculated according to the following formula. The values shown are the average of at least three parallel trials. Inhibition rate (%) =1 − (ODsample − ODblank)/(ODnegative − ODblank) × 100%.
A general note: Formazan colour is commonly taken as a measure of viable cells.

The subject of experiment [3] is BGC-823 cells. The experiment can be described thus: MTT cytotoxicity assay, BGC-823 cells. To be noted: Homo sapiens, 48 h, read-out: IC50 against BGC-823. It is filed as cell-based. On the procedure:
as §1

For experiment [4], the system named is MCF-7 cells. The experiment in a line: MTT cytotoxicity assay, MCF-7 cells. The format is cell-based. To be noted: Homo sapiens, MCF7, 48 h, read-out: IC50 against MCF-7. On the procedure:
as §1

The subject of experiment [5] is A549 cells. The experiment in a line: MTT cytotoxicity assay, A549 cells. Conditions: Homo sapiens, 48 h, read-out: IC50 against A549. The format is cell-based. The procedure:
as §1

In experiment [6] the test system is BEL-7402 cells. The experiment can be described thus: MTT cytotoxicity assay, BEL-7402 cells. The format is cell-based. Conditions: Homo sapiens, 48 h, read-out: IC50 against BEL-7402. The procedure: as §1
Experiment [7] deals with BGC-823 cells. The experiment can be described thus: AO/EB double staining. It is filed as cell-based, Human. To be noted: BGC-823, 0.5 IC50, IC50, 1.5 IC50, 24 h. On the procedure: AO (500 μL, 1 mg/mL) and EB (500 μL, 1 mg/mL) were mixed, and then 4 mL PBS was added to the above solution to form AO/EB dye […]. AO/EB dye (100 μL) was added to each well. After incubating for 3–5 min and washing twice with cold PBS, BGC-823 cells were observed immediately under an inverted fluorescence microscope.

In experiment [8] the test system is CT-DNA. The experiment can be described thus: UV/Vis absorbance titration with CT-DNA. The format is binding. Conditions: hyperchromic effects at 205 nm and 260 nm, no wavelength shift. On the procedure:
The binding patterns of 10a and 10f with CT-DNA were measured by UV/Vis spectroscopy in Tris-HCl buffer (0.05 M Tris-HCl/0.1 M NaCl, pH 7.4). The stock solution concentrations of both 10a and 10f in DMSO were 10^−3 M. CT-DNA was dissolved in Tris-HCl buffer and stored at 4 °C for use. The stock solution concentration of CT-DNA was determined by UV/Vis absorbance at 260 nm with the extinction coefficient 6600 M^−1·cm^−1 [67]. Tris-HCl buffer was used as a blank to make preliminary adjustments. Absorbance titration experiments were performed at room temperature with the concentrations of 10a and 10f at 0.1 µM, varying the concentrations of CT-DNA (0.2, 0.4, 0.6, 0.8, and 1 µM). The solution was allowed to equilibrate for 2–3 h before measurement. UV/Vis absorption spectra were recorded in the range of 200–400 nm. The binding constant was calculated according to the following equation [54]: […]=[DNA]/(εb−εf)+1/Kb(εb−εf), where εa corresponds to the observed extinction coefficient (A/[DNA]), εf corresponds to the extinction coefficient of the free compound, and εb is the extinction coefficient of the compound when fully bound to CT-DNA. [DNA] is the concentration of CT-DNA added to the compound. The Kb values of 10a and 10f were calculated from the slope to intercept ratio, which was obtained by plotting a graph of [DNA]/(εa − εf) versus [DNA].

Experiment [9] has as its system CT-DNA. The experiment can be described thus: Circular dichroism spectra of CT-DNA. It is filed as binding. Conditions: CT-DNA 600 μM, compound 100 μM, Tris-HCl pH 7.4. The procedure: The CD spectra of CT-DNA in the absence and presence of 10a or 10f were measured after equilibrating for 1 h in a 1 mm diameter quartz colorimeter at room temperature. The concentration of CT-DNA was fixed at 600 μM in each sample. Both 10a and 10f were added to the above CT-DNA solution at a concentration of 100 μM, respectively. The scanning speed was 200 nm/min. The spectra were scanned on an average of six times in the range of 200–400 nm. All measurements were performed in 0.05 M Tris-HCl buffer (pH 7.4).

For experiment [10], the system named is BGC-823 cells. The experiment can be described thus: ROS detection (DCFH-DA) by flow cytometry. Conditions: 24 h. The format is cell-based, Human. On the procedure:
According to the instructions of ROS Detection Kit (Solarbio, Beijing, China), in situ probe loading was adopted. ROS intensity changes were determined by inverted fluorescence microscopy and flow cytometry. The whole experiment was carried out under dark conditions.
A general note: A flow cytometer gives signals particle by particle.

In experiment [11] the test system is DNA. Also on record: method as in PMID 3427013. To be noted: classical intercalator; cited from earlier work.

As a reminder, the IC50 is the concentration at which inhibition is half-maximal. With `COc1cc(Nc2ncnc3cc(-c4ccc(C)cc4)sc23)cc(OC)c1OC` [Compound 2], the IC50 in experiment [1] is 0.03 µM.

With `O=c1[nH]cc(F)c(=O)[nH]1` [Compound 5-FU, 5-fluorouracil, reference compound], the IC50 in [2] amounted to 20.83 ± 0.05 µM; in experiment [3], 15.18 ± 0.05 µM; in experiment [4] it was 11.3 ± 0.78 µM; in experiment [5], 11.8 ± 0.89 µM; in experiment [6] it was 15.81 ± 0.01 µM.

Turning to `Brc1cccc(/C=N/Nc2cc(N/N=C/c3cccc(Br)n3)ncn2)n1` [Compound 10a, 4,6-Bis(2-((E)-(6-bromopyridin-2-yl)methylene)hydrazinyl)pyrimidine], the IC50 in experiment [2] is above 100 µM; in [3], 9 ± 0.6 µM; in [4] it was 22.93 ± 0.16 µM; in experiment [5], 26.96 ± 0.14 µM; in experiment [6], 6.7 ± 0.4 µM. In experiment [7], the “apoptosis by AO/EB double staining (morphology)” value is “induce apoptosis of BGC-823 cells in a dose-dependent manner”. Also, the “interaction mode with DNA (absorption spectra)” value in [8] was “groove binding and partial intercalation”. Also, in experiment [9], the “change of positive (279 nm) and negative (247 nm) CD bands of CT-DNA” value is listed as “decreased in intensity”.

Regarding `C(=N\Nc1cc(N/N=C/c2ccccn2)ncn1)/c1ccccn1` [Compound 10b, 4,6-Bis(2-((E)-pyridin-2-ylmethylene)hydrazinyl)pyrimidine], the IC50 in [2] was 38.4 ± 0.58 µM; in [3] it was 20.9 ± 0.82 µM; in [4] it was 39.8 ± 1.18 µM; in experiment [5] it was 27.3 ± 0.86 µM; in experiment [6] it was 15 ± 2 µM.

On to `Cc1cccc(/C=N/Nc2cc(N/N=C/c3cccc(C)n3)ncn2)n1` [Compound 10c, 4,6-Bis(2-((E)-(6-methylpyridin-2-yl)methylene)hydrazinyl)pyrimidine], for which the IC50 in [2] turned out to be 60.51 ± 0.21 µM; in experiment [3], 26.21 ± 0.1 µM; in experiment [4], 24 ± 0.43 µM; in [5] it was 37.3 ± 2.3 µM; in experiment [6] it was 29.5 ± 0.61 µM.

On to `Brc1cccc(/C=N/Nc2cc(N/N=C/c3cccc(Br)n3)nc(-c3ccccc3)n2)n1` [Compound 10d, 4,6-Bis(2-((E)-(6-bromopyridin-2-yl)methylene)hydrazinyl)-2-phenylpyrimidine], for which the IC50 in [2] is above 100 µM; in experiment [3], 20.8 ± 2.69 µM; in experiment [4], 27.6 ± 0.45 µM; in [5] it was 47.1 ± 0.8 µM; in [6], 22.5 ± 2.83 µM.

For `C(=N\Nc1cc(N/N=C/c2ccccn2)nc(-c2ccccc2)n1)/c1ccccn1` [Compound 10e, 4,6-Bis(2-((E)-pyridin-2-ylmethylene)hydrazinyl)-2-phenylpyrimidine], the IC50 was above 100 µM in [2]; 17.7 ± 0.24 µM in [3]; 15.7 ± 2 µM in experiment [4]; 30.3 ± 0.65 µM in [5]; 20.2 ± 1.43 µM in experiment [6].

As for `Cc1cccc(/C=N/Nc2cc(N/N=C/c3cccc(C)n3)nc(-c3ccccc3)n2)n1` [Compound 10f, 4,6-Bis(2-((E)-(6-methylpyridin-2-yl)methylene)hydrazinyl)-2-phenylpyrimidine], the IC50 in [2] is above 100 µM; in [3] it was 7.89 ± 0.78 µM; in experiment [4] it was 10.6 ± 0.14 µM; in experiment [5] it was 37.7 ± 1.37 µM; in [6] it was 7.66 ± 0.55 µM. Also, in experiment [7], the “apoptosis by AO/EB double staining (morphology)” value is recorded as “induce apoptosis of BGC-823 cells in a dose-dependent manner”. In experiment [8], the “interaction mode with DNA (absorption spectra)” value is “groove binding and partial intercalation”. Further, the “ROS fluorescence intensity (DCF)” value in experiment [10] (BGC-823, 4 μM) was found to be 27.6; in experiment [10] (BGC-823, 8 μM), 32.2. In addition, the “change of positive (279 nm) and negative (247 nm) CD bands of CT-DNA” value in [9] is “decreased in intensity”.

Take `CC[n+]1c(-c2ccccc2)c2cc(N)ccc2c2ccc(N)cc21` [EB, Ethidium bromide]: in experiment [11], the “binding constant with DNA” value is ~10^7 M^−1.
